According to publication PMC4623604, “Discovery of Small Molecules that Inhibit the Disordered Protein, p27^Kip1” (Scientific Reports, 2015):

How the values were obtained:
[1] = molecular target: T1, p21-KID (Homo sapiens, UniProt P38936); test: 2D 1H-15N HSQC NMR with p21-KID; assay type: binding; conditions: 1 mM compound, 20 μM p21-KID, 298 K
T1 construct: made in house
Procedure: Figure 8 Interaction of p21-KID with representative p27 fragment hits.
Screening and validation NMR experiments were performed at 298 K (25 °C) using either a Varian Inova 600 MHz spectrometer equipped with a triple resonance (HCN) room temperature gradient probe or a Bruker Avance 600 MHz spectrometer equipped with TCI cryogenic gradient probe and a SampleJet sample changer. Fragment molecules were initially analyzed as pools of five molecules dissolved at 10 mM each in DMSO-D6. […] For initial fragment screening experiments, one-dimensional (1D) ^1H- and WaterLOGSY[35] NMR spectra were recorded for compound pools without and with protein. […] DMSO-D6 was added to maintain a constant concentration (2% vol/vol). […] Tryptophan and tyrosine, respectively, were titrated into ^15N-p27-KID (100 μM) up to 3 mM. […] 2D ^1H-^15N TROSY-HSQC NMR experiments with ^2H/^13C/^15N-p27-D2/Cdk2/cyclin A and SJ403 have been recorded at 308 K (35 °C). 2D ^1H-^15N HSQC experiments of representative fragment hits (1 mM of SJ319843, group 1 and SJ403, group 2, respectively) with ^15N-p21-KID (20 μM) were recorded at 298 K using a Bruker Avance 600 MHz spectrometer. NMR spectra were processed using Bruker Topspin software and analyzed using computer-aided resonance assignment (CARA) software.

[2] = molecular target: T2, p27-KID mutants (Homo sapiens, UniProt P46527, Y88A); test: 2D NMR binding mapping with p27-KID mutants
T2 construct: 6xHis (N, cleaved yes); made in house; host or cells: E. coli (pET28a)
T2 sequence (P46527 22-105 Y88A): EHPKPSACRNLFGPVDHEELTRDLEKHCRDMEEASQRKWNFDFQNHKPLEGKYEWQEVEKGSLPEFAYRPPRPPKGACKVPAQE
Text: (§1) (Fig. 7a–c); these interaction sites are all within the Cdk2-binding D2 sub-domain. […] In fact, sub-domain D2 contains eight of the nine aromatic amino acids found within p27; a ninth, F33, is found within sub-domain D1 but […] to small molecules. Group 1 molecules caused the largest CSPs for residues F87, Y88 and Y89 within sub-region D2.3 and Group 2 molecules perturbed resonances for these residues as well as for residues W60, N61 (sub-region D2.1) and E75, W76 and Q77 (sub-region D2.2).
(§2) The p27 constructs were expressed in E. Coli with an N-terminal 6xHis affinity tag after sub-cloning into pET28a (Novagen) using established procedures. […]
(§3) Screening and validation NMR experiments were performed at 298 K (25 °C) using either a Varian Inova 600 MHz spectrometer equipped with a triple resonance (HCN) room temperature gradient probe or a Bruker Avance 600 MHz spectrometer equipped with TCI cryogenic gradient probe and a SampleJet sample changer. Fragment molecules were initially analyzed as pools of five molecules dissolved at 10 mM each in DMSO-D6. […] NMR spectra were recorded for compound pools without and with protein. […] 2D ^1H-^15N TROSY-HSQC NMR experiments with ^2H/^13C/^15N-p27-D2/Cdk2/cyclin A and SJ403 have been recorded at 308 K (35 °C). […] NMR spectra were processed using Bruker Topspin software and analyzed using computer-aided resonance assignment (CARA) software.

[3] = system: p27-KID mutants; test: 2D NMR binding mapping with p27-KID mutants; set-up: species or system human
Text: as §1, §2, §3

T1 sequence (P38936 9-84 limits assumed): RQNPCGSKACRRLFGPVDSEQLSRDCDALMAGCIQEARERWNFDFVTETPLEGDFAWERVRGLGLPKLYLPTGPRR

CCn1c(C)c(C)n2c3c(=O)n(C)c(=O)n(C)c3nc12 [SJ403]
interaction with p21-KID (1H chemical shift perturbations) [1]: interacted with residues near W49 and W65 of p21 | CSPs with Y88 to A p27-KID mutant [2]: caused CSPs near the two W residues (W60 or W76) but not within the F87A88Y89 region | CSPs with doubly mutated p27-KID variants (W60A-W76A, W60F-W76F) [3]: only very weak CSPs within the F87YY89 aromatic cluster
